According to US20050191252A1, “Skin beautification cosmetic system using iontophoresis device, ultrasonic facial stimulator, and cosmetic additive” (priority 2004, published 2005):
Where two headings read alike, the source gives them in different places.

Key:
[1] = Vitamin C osmosis comparison using autoradiography (Test Example 3); format: in vivo, hairless rat
Excerpt: Vitamin C osmosis comparison using autoradiography.
These figures (photographs) display a cross-section of rat skin tissue, wherein black dots in the epidermis and dermis indicate vitamin C.

[2] = rat, in vivo
Method: The present inventor introduced a 0.1% diluted solution of C-ascorbic acid (hereinafter referred to as Vitamin C) into the back skin of a rat by simple external application and iontophoresis to compare osmosis of vitamin C using a scintillation counter and autoradiography.
A 0.1% vitamin C solution was applied to the back skin of a hairless rat for 20 seconds by iontophoresis or for 10 minutes by simple external application. Tissue samples were collected at prescribed intervals (Samples of iontophoresis application: control, 0.5 h, 1 h, 2 h, 3 h, and 6 h; samples of simple external application: control, 1 h, 2 h, 3 h, and 6 h). Each collected sample was cut into two pieces, one of which was separated into epidermis and dermis for use as a scintillation counter sample. A lyophilized section was prepared from the other piece of the sample and developed for autoradiography analysis. The vitamin C concentration in each tissue was determined using IR analysis.

[3] = Vitamin C osmosis into the human skin (Test Example 1), iontophoretic introduction, HPLC of epidermis and dermis; details: human thigh skin, five hours after five minutes iontophoretic introduction
Method: <Experiment Procedure> • (1) Vitamin C was iontophoretically introduced for five minutes. • (2) After five hours, 5 mm of the skin was punched, separated into epidermis and dermis, and freeze dried. • (3) The Vitamin C concentration in the epidermis and dermis was determined by HPLC. • 1) The freeze dry samples were dissolved in 500 □1 of a moving layer solvent. • 2) The solution was ultrasonically treated for 10 minutes, • 3) filtered through a 0.2 mm filter, and • 4) subjected to HPLC measurement.
Moving layer: A 0.08 M CH3COOH—CH3COONa buffer solution (pH 5.0) containing 2.8 mM Mn-hexyl amine, 0.1 mM disodium edetate, and 2% methanol. • Measuring amount: 20 □1 • Flow rate: 0.8 ml/min. • Wavelength: 254 nm • Column: ODS column oven: 40° C.

osmosis by iontophoresis application relative to simple external application ([2]; hairless): about 30 times
time at which concentration reached maximum ([2]; hairless): 0.5 h
time at which concentration reached maximum [2]: one
Dermis (ppm), Vitamin C concentration [3]: 0.05 ppm
Epidermis (ppm), Vitamin C concentration [3]: 0.02 ppm
SMILES: O=C1O[C@H]([C@@H](O)CO)C(O)=C1O [Vitamin C, C-ascorbic acid]
penetration from the epidermis into the dermis (autoradiography) ([1]; iontophoresis application, rat back skin (FIG. 7)): started to penetrate at 0.5 hour and more abundantly after one hour
penetration from the epidermis into the dermis (autoradiography) ([1]; simple external application, rat back skin (FIG. 6)): progressively penetrated from the epidermis into the dermis over time
